Results from article PMC12302228 (RSC Medicinal Chemistry, 2025).
≈ marks a conversion by molar mass, not a printed value. Where two headings read alike, the source gives them in different places.

Assays:
[1] = test system: MCF7; assay: Antiproliferative activity, SRB assay; type: cell-based, human; details: mean ± SEM
[2] = test system: HT-29; assay: Antiproliferative activity, SRB assay; type: cell-based, human; details: mean ± SEM
[3] = test system: M21; assay: Antiproliferative activity, SRB assay; type: cell-based, human; details: mean ± SEM
[4] = test system: THP-1; assay: Antiproliferative activity, MTT assay; type: cell-based, human; details: mean ± SEM
[5] = physchem; details: ultrapure water, 37 °C, kinetic from dmso stock
[6] = test system: HL-60; assay: Antiproliferative activity, MTT assay; type: cell-based, human; details: mean ± SEM
[7] = test system: HT-1080; assay: Antiproliferative activity, SRB assay; type: cell-based, human; details: read-out: IC50 HT-1080; 48 h of treatment; mean ± SEM
[8] = test system: MOLM-13; assay: Antiproliferative activity, MTT assay; type: cell-based, human; details: read-out: IC50 MOLM-13; 48 h of treatment; mean ± SEM
[9] = Homo sapiens, MCF7, 48 h, read-out: IC50 MCF7, 48 h of treatment
[10] = Homo sapiens, HT-29, 48 h, read-out: IC50 HT-29, 48 h of treatment
[11] = read-out: IC50 M21, 48 h of treatment
[12] = Homo sapiens, THP-1, 48 h, read-out: IC50 THP-1, 48 h of treatment
[13] = read-out: IC50 HL-60, 48 h of treatment
[14] = read-out: IC50 MCF7, 48 h of treatment
[15] = Homo sapiens, M21, 48 h, read-out: IC50 M21, 48 h of treatment
[16] = Homo sapiens, HL-60, 48 h, read-out: IC50 HL-60, 48 h of treatment
[17] = read-out: IC50 THP-1, 48 h of treatment
[18] = read-out: IC50 HT-29, 48 h of treatment

Row | SMILES | IC50 [1, 9] [µM] | IC50 [2, 10] [µM] | IC50 [3, 11] [µM] | IC50 [4, 12] [µM] | solubility at 24 h [5] [µg/mL] | IC50 [6, 13] [µM] | IC50 [1, 14] [µM] | IC50 [3, 15] [µM] | IC50 [7] [µM] | IC50 [6, 16] [µM] | IC50 [4, 17] [µM] | IC50 [2, 18] [µM] | IC50 [8] [µM]
1 | CC(C)c1ncccc1OS(=O)(=O)c1ccc(NC(=O)NCCCl)cc1 [Compound 11, 2-Isopropylpyridin-3-yl 4-(3-(2-chloroethyl)ureido)benzenesulfonate] | 17 ± 1 | 14 ± 1 | 20 ± 1 | 2.3 ± 0.9 | 41 ± 3 (≈ 103 µM) | 27 ± 6 | – | – | – | – | – | – | –
2 | CCNC(=O)Nc1ccc(S(=O)(=O)Oc2cccnc2C)cc1.Cl [Compound 22, 2-Methylpyridin-3-yl 4-(3-ethylureido)benzenesulfonate hydrochloride] | – | > 100 | – | 5 ± 2 | 152 ± 4 | – | 51 ± 5 | > 100 | 26 ± 2 | 60 ± 20 | – | – | –
3 | O=C(NCCCl)Nc1ccc(S(=O)(=O)Oc2cccnc2Br)cc1 [Compound 9, 2-Bromopyridin-3-yl 4-(3-(2-chloroethyl)ureido)benzenesulfonate] | 16 ± 1 | 17 ± 1 | – | – | 56 ± 2 (≈ 129 µM) | 12 ± 1 | – | 23 ± 1 | – | – | 1.2 ± 0.5 | – | –
4 | CCNC(=O)Nc1ccc(S(=O)(=O)Oc2cnccc2Br)cc1.Cl [Compound 30, 4-Bromopyridin-3-yl 4-(3-ethylureido)benzenesulfonate hydrochloride] | – | – | 44 ± 3 | – | 122 ± 4 | 80 ± 5 | 45 ± 4 | – | 6.7 ± 0.4 | – | 6 ± 2 | 45 ± 4 | 3.7 ± 0.5
5 | Cl.O=C(NCCCl)Nc1ccc(S(=O)(=O)Oc2cccnc2Br)cc1 [Compound 27, 2-Bromopyridin-3-yl 4-(3-(2-chloroethyl)ureido)benzenesulfonate hydrochloride] | – | – | 30 ± 2 | – | 189 ± 5 | > 50 | 16 ± 1 | – | 5.5 ± 0.4 | – | 4.9 ± 0.3 | 33 ± 1 | 4.8 ± 0.7
6 | O=C(NCCCl)Nc1ccc(S(=O)(=O)Oc2cnccc2I)cc1 [Compound 18, 4-Iodopyridin-3-yl 4-(3-(2-chloroethyl)ureido)benzenesulfonate] | 2.8 ± 0.4 | 2.7 ± 0.2 | – | 1.2 ± 0.3 | 24 ± 2 (≈ 49.8 µM) | – | – | 2.8 ± 0.3 | – | 3 ± 1 | – | – | –
7 | CCCNC(=O)Nc1ccc(S(=O)(=O)Oc2cnccc2I)cc1 [Compound 16, 4-Iodopyridin-3-yl 4-(3-propylureido)benzenesulfonate] | – | – | 9.7 ± 0.9 | 1.5 ± 0.4 | 53 ± 6 (≈ 115 µM) | 18 ± 4 | 5 ± 1 | – | – | – | – | 6.9 ± 0.5 | 1.3 ± 0.3
8 | CCCNC(=O)Nc1ccc(S(=O)(=O)Oc2cccnc2C)cc1 [Compound 8, 2-Methylpyridin-3-yl 4-(3-propylureido)benzenesulfonate] | 19 ± 2 | 70 ± 8 | – | 3.5 ± 0.9 | 44 ± 1 (≈ 126 µM) | 35 ± 7 | – | 69 ± 3 | 5.1 ± 0.5 | – | – | – | –
9 | Cl.O=C(NCCCl)Nc1ccc(S(=O)(=O)Oc2cnccc2I)cc1 [Compound 36, 4-Iodopyridin-3-yl 4-(3-(2-chloroethyl)ureido)benzenesulfonate hydrochloride] | – | – | 3.5 ± 0.4 | – | 154 ± 7 | 3 ± 1 | 3.8 ± 0.3 | – | 1.2 ± 0.2 | – | 0.9 ± 0.2 | 2.3 ± 0.1 | 0.7 ± 0.2
10 | CCCNC(=O)Nc1ccc(S(=O)(=O)Oc2cccnc2I)cc1 [Compound 6, 2-Iodopyridin-3-yl 4-(3-propylureido)benzenesulfonate] | – | – | 17 ± 1 | – | 23 ± 2 (≈ 49.9 µM) | 24 ± 5 | 13 ± 1 | – | 2 ± 0.2 | – | 2.4 ± 0.1 | 16 ± 1 | 2.2 ± 0.3
11 | CCNC(=O)Nc1ccc(S(=O)(=O)Oc2cccnc2Br)cc1 [Compound 1, 2-Bromopyridin-3-yl 4-(3-ethylureido)benzenesulfonate] | – | – | 12 ± 1 | – | 64 ± 1 (≈ 160 µM) | 40 ± 10 | 31 ± 3 | – | 2.1 ± 0.3 | – | 7 ± 1 | 9.7 ± 0.7 | 1.1 ± 0.2
12 | CCNC(=O)Nc1ccc(S(=O)(=O)Oc2cnccc2I)cc1 [Compound 13, 4-Iodopyridin-3-yl 4-(3-ethylureido)benzenesulfonate] | 15 ± 2 | 12 ± 1 | – | 1.8 ± 0.5 | 63 ± 1 (≈ 141 µM) | – | – | 9 ± 1 | – | 25 ± 7 | – | – | –
13 | CCCNC(=O)Nc1ccc(S(=O)(=O)Oc2cccnc2Br)cc1.Cl [Compound 23, 2-Bromopyridin-3-yl 4-(3-propylureido)benzenesulfonate hydrochloride] | 22 ± 2 | – | – | 10 ± 0.3 | 79 ± 9 | – | – | 45 ± 2 | – | 37 ± 7 | – | 42 ± 2 | –
14 | CCCNC(=O)Nc1ccc(S(=O)(=O)Oc2cccnc2C(C)C)cc1 [Compound 7, 2-Isopropylpyridin-3-yl 4-(3-propylureido)benzenesulfonate] | 17 ± 1 | 14 ± 1 | – | 2.6 ± 0.6 | 7 ± 1 (≈ 18.5 µM) | 24 ± 4 | – | 22 ± 2 | – | – | – | – | –
15 | CCNC(=O)Nc1ccc(S(=O)(=O)Oc2cnccc2Br)cc1 [Compound 12, 4-Bromopyridin-3-yl 4-(3-ethylureido)benzenesulfonate] | 32 ± 4 | 25 ± 1 | 21 ± 1 | 4 ± 0.6 | 64 ± 1 (≈ 160 µM) | – | – | – | – | > 50 | – | – | –
16 | CCNC(=O)Nc1ccc(S(=O)(=O)Oc2cccnc2Br)cc1.Cl [Compound 19, 2-Bromopyridin-3-yl 4-(3-ethylureido)benzenesulfonate hydrochloride] | 28 ± 2 | – | 27 ± 2 | 7 ± 3 | 173 ± 2 | > 100 | – | – | – | – | – | 26 ± 2 | –
17 | CCNC(=O)Nc1ccc(S(=O)(=O)Oc2cnccc2C)cc1 [Compound 14, 4-Methylpyridin-3-yl 4-(3-ethylureido)benzenesulfonate] | 31 ± 3 | 16 ± 1 | – | – | 49 ± 4 (≈ 146 µM) | – | – | 31 ± 3 | – | > 100 | 6 ± 2 | – | –
18 | O=C(NCCCl)Nc1ccc(S(=O)(=O)Oc2cccnc2I)cc1 [Compound 10, 2-Iodopyridin-3-yl 4-(3-(2-chloroethyl)ureido)benzenesulfonate] | – | – | – | 1 ± 0.1 | 4.4 ± 0.1 (≈ 9.13 µM) | 6.9 ± 0.3 | 5 ± 1 | 9 ± 1 | – | – | – | 9 ± 1 | –
19 | CCCNC(=O)Nc1ccc(S(=O)(=O)Oc2cnccc2Br)cc1 [Compound 15, 4-Bromopyridin-3-yl 4-(3-propylureido)benzenesulfonate] | 12 ± 1 | 19 ± 1 | – | 6 ± 1 | 35 ± 3 (≈ 84.5 µM) | – | – | 28 ± 2 | 4.1 ± 0.3 | 21 ± 5 | – | – | –
20 | CCCNC(=O)Nc1ccc(S(=O)(=O)Oc2cccnc2I)cc1.Cl [Compound 24, 2-Iodopyridin-3-yl 4-(3-propylureido)benzenesulfonate hydrochloride] | 22 ± 2 | 28 ± 2 | – | 3.9 ± 0.7 | 120 ± 10 | – | – | 29 ± 2 | – | 30 ± 10 | – | – | –
